From paper PMC12455397 (Angewandte Chemie (International Ed. in English), 2025)

Experiments:
[1] = test system: Nrf2-regulated genes (AKR1B10, NQO1, TRXR1, HO-1) in HaCaT human keratinocytes; test: HaCaT cell assay, Western Blotting of Nrf2-regulated proteins; assay type: cell-based; conditions: HaCaT, 10 µM, 24 h
human Keap1 Kelch = human Keap1 Kelch (Homo sapiens, UniProt Q14145); test: Fluorescence polarization (FP) competition assay with Cy5-Nrf2 peptide probe; conditions: ≥3 individual measurements
Experimental: Fluorescence Polarization Assay
(3 nM) and human Keap1 Kelch at 14 nM in the 1×HBSTET assay buffer, as previously.[1, 3-5] In short, the assay was performed in black flat-bottom 384-well plates (Corning Life Sciences, NY) allowing an assay volume of 30 μL/well. Proper mixing and elimination of air bubbles was ascertained by spinning down the plates and incubation for 10–15 minutes at RT before measuring FP levels on a Safire2 plate-reader (Tecan, Männedorf, Switzerland). The Ki values of the compounds were determined by dose-response experiments (12-points, 4% DMSO in all wells), where FP values were fitted to the equation Y = Bottom + (Top - Bottom)/[1 + (10HillSlope*(LogIC50-X))]; X representing the logarithmic value of compound concentration. The resulting IC50 value, together with the Kd value (the dissociation constant between probe and Keap1 Kelch, determined in a prior experiment) and Keap1 Kelch concentrations, was used to calculate the theoretical competitive inhibition constant, the Ki value.[18]

[2] = FP (Ki/nM), Table S2, mean ± SEM, NA: not active (measured up to 4 mM)
[3] = Ki (FP), mean, text and figures

Chain of human Keap1 Kelch (Q14145 321-609): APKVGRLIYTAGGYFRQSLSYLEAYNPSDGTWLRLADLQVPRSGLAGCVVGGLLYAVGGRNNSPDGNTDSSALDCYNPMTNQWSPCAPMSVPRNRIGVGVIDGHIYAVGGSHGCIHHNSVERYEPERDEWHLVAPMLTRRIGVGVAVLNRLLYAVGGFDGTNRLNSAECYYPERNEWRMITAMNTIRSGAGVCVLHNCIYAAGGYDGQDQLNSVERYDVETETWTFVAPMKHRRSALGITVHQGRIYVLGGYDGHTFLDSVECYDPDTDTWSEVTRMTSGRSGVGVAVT

| SMILES | protein levels of Nrf2-regulated genes by WB [1] | Ki (human Keap1 Kelch; [2]) | Ki (human Keap1 Kelch; [3]) |
| --- | --- | --- | --- |
| Cc1cc2c(cc1C(CC(=O)O)c1ccc3ccc(OCC(=O)NC4CCCCCC4)cc3c1)CCO2 (stereo not drawn) [Compound 25] | strong bands in WB for all tested proteins | 18.8 ± 1.7 nM | 19 nM |
| Cc1cc2occc2cc1C(CC(=O)O)c1ccc2ccc(OCC(=O)NC3CCCCCC3)cc2c1 (stereo not drawn) [Compound 26] |  | 15.6 ± 2.6 nM | 16 nM |
| Cc1cc2c(cc1C(CC(=O)O)c1ccc3ccc(OCC(=O)NC4CCCCCC4)cc3c1)OC(F)(F)O2 (stereo not drawn) [Compound 27] |  | 14.1 ± 2.4 nM | 14 nM |
| O=C(O)CC(c1ccc2c(c1)OCO2)c1ccc2ccc(OCC(=O)NC3CCCCC3)cc2c1 (stereo not drawn) [Compound 29] |  | 57.1 ± 4.8 nM | 57 nM |
| O=C(O)CC(c1ccc2c(c1)CCO2)c1ccc2ccc(OCC(=O)NC3CCCCC3)cc2c1 (stereo not drawn) [Compound 30] |  | 82.1 ± 7.9 nM | 82 nM |
| O=C(O)CC(c1ccc2ccc(OCC(=O)NC3CCCCC3)cc2c1)c1ccc2occc2c1 (stereo not drawn) [Compound 31] |  | 68.2 ± 12 nM | 68 nM |
| O=C(O)CC(c1ccc2c(c1)OC(F)(F)O2)c1ccc2ccc(OCC(=O)NC3CCCCC3)cc2c1 (stereo not drawn) [Compound 32] |  | 51.4 ± 4.8 nM | 51 nM |
| O=C(O)CC(c1ccc2c(c1)OCCO2)c1ccc2ccc(OCC(=O)NC3CCCCC3)cc2c1 (stereo not drawn) [Compound 33] |  | 29.3 ± 1.7 nM | 29 nM |
| Cc1cc2c(cc1C(CC(=O)O)c1ccc3ccc(OCC(=O)NC4CCCCC4)cc3c1)OCO2 (stereo not drawn) [Compound 34] |  | 18.1 ± 5.9 nM | 18 nM |
| Cc1cc2c(cc1C(CC(=O)O)c1ccc3ccc(OCC(=O)NC4CCCCC4)cc3c1)CCO2 (stereo not drawn) [Compound 35] |  | 32.4 ± 1.3 nM | 32 nM |
| Cc1cc2occc2cc1C(CC(=O)O)c1ccc2ccc(OCC(=O)NC3CCCCC3)cc2c1 (stereo not drawn) [Compound 36] |  | 24.4 ± 0.4 nM | 24 nM |
| Cc1cc2c(cc1C(CC(=O)O)c1ccc3ccc(OCC(=O)NC4CCCCC4)cc3c1)OC(F)(F)O2 (stereo not drawn) [Compound 37] |  |  | 7.1 nM |
| Cc1cc2c(cc1C(CC(=O)O)c1ccc3ccc(OCC(=O)NC4CCCCC4)cc3c1)OCCO2 (stereo not drawn) [Compound 38] |  | 14.9 ± 0.8 nM | 15 nM |
| O=C(O)CC(c1ccc2c(c1)OCO2)c1ccc2ccc(OCC(=O)NC3C=CCCC3)cc2c1 (stereo not drawn) [Compound 39] |  | 24.5 ± 1.7 nM | 25 nM |
| O=C(O)CC(c1ccc2c(c1)CCO2)c1ccc2ccc(OCC(=O)NC3C=CCCC3)cc2c1 (stereo not drawn) [Compound 40] | strong bands in WB for all tested proteins | 26.7 ± 4.2 nM | 27 nM |
| O=C(O)CC(c1ccc2ccc(OCC(=O)NC3C=CCCC3)cc2c1)c1ccc2occc2c1 (stereo not drawn) [Compound 41] |  | 21.1 ± 1.5 nM | 21 nM |
| O=C(O)CC(c1ccc2c(c1)OC(F)(F)O2)c1ccc2ccc(OCC(=O)NC3C=CCCC3)cc2c1 (stereo not drawn) [Compound 42] |  | 29.9 ± 2.2 nM | 30 nM |
| O=C(O)CC(c1ccc2c(c1)OCCO2)c1ccc2ccc(OCC(=O)NC3C=CCCC3)cc2c1 (stereo not drawn) [Compound 43] |  | 20.3 ± 2.1 nM | 20 nM |
| Cc1cc2c(cc1C(CC(=O)O)c1ccc3ccc(OCC(=O)NC4C=CCCC4)cc3c1)OCO2 (stereo not drawn) [Compound 44] | strong bands in WB for all tested proteins |  | 3.9 nM |
| Cc1cc2c(cc1C(CC(=O)O)c1ccc3ccc(OCC(=O)NC4C=CCCC4)cc3c1)CCO2 (stereo not drawn) [Compound 45] |  | 18.3 ± 2.4 nM | 18 nM |
| Cc1cc2occc2cc1C(CC(=O)O)c1ccc2ccc(OCC(=O)NC3C=CCCC3)cc2c1 (stereo not drawn) [Compound 46] |  | 17.8 ± 3.4 nM | 18 nM |
| Cc1cc2c(cc1C(CC(=O)O)c1ccc3ccc(OCC(=O)NC4C=CCCC4)cc3c1)OC(F)(F)O2 (stereo not drawn) [Compound 47] |  | 16.1 ± 3.8 nM | 16 nM |
| Cc1cc2c(cc1C(CC(=O)O)c1ccc3ccc(OCC(=O)NC4C=CCCC4)cc3c1)OCCO2 (stereo not drawn) [Compound 48] | strong bands in WB for all tested proteins | 19.2 ± 2.4 nM | 19 nM |
